# Measured values as given in ChEMBL document CHEMBL2401728, “An unexpected Dimroth rearrangement leading to annelated thieno[3,2-d][1,2,3]triazolo[1,5-a]pyrimidines with potent antitumor activity” (Eur J Med Chem, 2013).
# How the values were obtained:
# Format in all cases: functional
# SF-539 [1] = test: Cytotoxicity against human SF539 cells after 48 hrs by SRB assay; conditions: SF-539, 48 h
# RXF 393 [2] = test: Cytotoxicity against human RXF393 cells assessed as cellular growth at 1 uM after 48 hrs by SRB assay relative to control
# MDA-MB-468 = test: Cytotoxicity against human MDA-MB-468 cells assessed as cellular growth at 0.1 uM after 48 hrs by SRB assay relative to control
# SF-539 [3] = test: Cytotoxicity against human SF539 cells assessed as cellular growth at 0.01 uM after 48 hrs by SRB assay relative to control
# HOP-62 = test: Cytotoxicity against human HOP62 cells assessed as cellular growth at 0.01 uM after 48 hrs by SRB assay relative to control
# NCI-H522 = test: Cytotoxicity against human NCI-H522 cells assessed as cellular growth at 100 uM after 48 hrs by SRB assay relative to control
# RXF 393 [4] = test: Cytotoxicity against human RXF393 cells after 48 hrs by SRB assay; conditions: RXF 393, 48 h
# SF-268 = test: Cytotoxicity against human SF268 cells assessed as cellular growth at 0.1 uM after 48 hrs by SRB assay relative to control
# OVCAR-8 = test: Cytotoxicity against human OVCAR8 cells assessed as cellular growth at 0.01 uM after 48 hrs by SRB assay relative to control
# SK-MEL-5 = test: Cytotoxicity against human SK-MEL-5 cells assessed as cellular growth at 0.1 uM after 48 hrs by SRB assay relative to control
# HL-60(TB) [5] = test: Cytotoxicity against human HL-60(TB) cells assessed as cellular growth at 100 uM after 48 hrs by SRB assay relative to control
# A498 = test: Cytotoxicity against human A498 cells assessed as cellular growth at 10 uM after 48 hrs by SRB assay relative to control
# [6] = Cytotoxicity against human NCI-ADR-RES cells after 48 hrs by SRB assay
# UACC-257 [7] = test: Cytotoxicity against human UACC257 cells assessed as cellular growth at 0.1 uM after 48 hrs by SRB assay relative to control
# UACC-257 [8] = test: Cytotoxicity against human UACC257 cells assessed as cellular growth at 100 uM after 48 hrs by SRB assay relative to control
# DU-145 = test: Cytotoxicity against human DU145 cells assessed as cellular growth at 100 uM after 48 hrs by SRB assay relative to control
# T47D [9] = test: Cytotoxicity against human T47D cells assessed as cellular growth at 100 uM after 48 hrs by SRB assay relative to control
# SW-620 = test: Cytotoxicity against human SW620 cells after 48 hrs by SRB assay; conditions: SW-620, 48 h
# SNB-75 = test: Cytotoxicity against human SNB75 cells assessed as cellular growth at 0.01 uM after 48 hrs by SRB assay relative to control
# UACC-62 [10] = test: Cytotoxicity against human UACC62 cells assessed as cellular growth at 0.01 uM after 48 hrs by SRB assay relative to control
# [11] = Cytotoxicity against human NCI-ADR-RES cells assessed as cellular growth at 100 uM after 48 hrs by SRB assay relative to control
# COLO 205 = test: Cytotoxicity against human COLO205 cells assessed as cellular growth at 100 uM after 48 hrs by SRB assay relative to control
# HL-60(TB) [12] = test: Cytotoxicity against human HL-60(TB) cells assessed as cellular growth at 0.1 uM after 48 hrs by SRB assay relative to control
# T47D [13] = test: Cytotoxicity against human T47D cells after 48 hrs by SRB assay
# HCT-116 [14] = test: Cytotoxicity against human HCT116 cells assessed as cellular growth at 10 uM after 48 hrs by SRB assay relative to control
# NCI-H460 [15] = test: Cytotoxicity against human NCI-H460 cells assessed as cellular growth at 0.1 uM after 48 hrs by SRB assay relative to control
# NCI-H460 [16] = test: Cytotoxicity against human NCI-H460 cells assessed as cellular growth at 1 uM after 48 hrs by SRB assay relative to control
# HCT-15 = test: Cytotoxicity against human HCT15 cells after 48 hrs by SRB assay; conditions: HCT-15, 48 h
# NCI-H23 [17] = test: Cytotoxicity against human NCI-H23 cells assessed as cellular growth at 100 uM after 48 hrs by SRB assay relative to control
# HCT-116 [18] = test: Cytotoxicity against human HCT116 cells assessed as cellular growth at 100 uM after 48 hrs by SRB assay relative to control
# UO-31 = test: Cytotoxicity against human UO31 cells assessed as cellular growth at 0.1 uM after 48 hrs by SRB assay relative to control
# UACC-62 [19] = test: Cytotoxicity against human UACC62 cells assessed as cellular growth at 100 uM after 48 hrs by SRB assay relative to control
# MCF7 = test: Cytotoxicity against human MCF7 cells assessed as cellular growth at 0.1 uM after 48 hrs by SRB assay relative to control
# M14 = test: Cytotoxicity against human M14 cells assessed as cellular growth at 10 uM after 48 hrs by SRB assay relative to control
# K562 = test: Cytotoxicity against human K562 cells after 48 hrs by SRB assay; conditions: K562, 48 h
# NCI-H23 [20] = test: Cytotoxicity against human NCI-H23 cells assessed as cellular growth at 0.01 uM after 48 hrs by SRB assay relative to control
# [21] = read-out: LC50 (the source's name)
# [22] = read-out: pLC50 (the source's name) (converted)
smiles,measurement,setting,value
CN1CCN(CCCn2c3c(sc4ncccc43)c(=O)n3nnc(-c4ccccc4)c23)CC1,GI50,SF-539 [1]; read-out: GI50,1.71 µM
same,CC50,SF-539 [1]; [21],6.54 µM
same,TGI,SF-539 [1]; read-out: TGI,3.34 µM
same,GI50,SF-539 [1]; read-out: pGI50 (converted),1.7 µM
same,CC50,SF-539 [1]; [22],6.61 µM
same,TGI,SF-539 [1]; read-out: pTGI (converted),3.31 µM
same,Activity,RXF 393 [2],93%
same,Activity,MDA-MB-468,95%
same,Activity,SF-539 [3],99%
same,Activity,HOP-62,97%
same,Activity,NCI-H522,-35%
same,GI50,RXF 393 [4]; read-out: GI50,1.7 µM
same,CC50,RXF 393 [4]; [21],5.86 µM
same,TGI,RXF 393 [4]; read-out: TGI,3.15 µM
same,GI50,RXF 393 [4]; read-out: pGI50 (converted),1.7 µM
same,CC50,RXF 393 [4]; [22],5.89 µM
same,TGI,RXF 393 [4]; read-out: pTGI (converted),3.16 µM
same,Activity,SF-268,89%
same,Activity,OVCAR-8,97%
same,Activity,SK-MEL-5,92%
same,Activity,HL-60(TB) [5],-62%
same,Activity,A498,57%
same,GI50,[6]; read-out: GI50,2.23 µM
same,CC50,[6]; [21],43.2 µM
same,TGI,[6]; read-out: TGI,5.8 µM
same,GI50,[6]; read-out: pGI50 (converted),2.24 µM
same,CC50,[6]; [22],43.7 µM
same,TGI,[6]; read-out: pTGI (converted),5.75 µM
same,Activity,UACC-257 [7],99%
same,Activity,UACC-257 [8],-87%
same,Activity,DU-145,-88%
same,Activity,T47D [9],-76%
same,GI50,SW-620; read-out: GI50,1.68 µM
same,CC50,SW-620; [21],8.1 µM
same,TGI,SW-620; read-out: TGI,3.69 µM
same,GI50,SW-620; read-out: pGI50 (converted),1.7 µM
same,CC50,SW-620; [22],8.13 µM
same,TGI,SW-620; read-out: pTGI (converted),3.72 µM
same,Activity,SNB-75,76%
same,Activity,UACC-62 [10],91%
same,Activity,[11],-62%
same,Activity,COLO 205,-86%
same,Activity,HL-60(TB) [12],91%
same,GI50,T47D [13]; read-out: GI50,19.7 µM
same,CC50,T47D [13]; [21],71.6 µM
same,TGI,T47D [13]; read-out: TGI,37.6 µM
same,GI50,T47D [13]; read-out: pGI50 (converted),20 µM
same,CC50,T47D [13]; [22],70.8 µM
same,TGI,T47D [13]; read-out: pTGI (converted),38 µM
same,Activity,HCT-116 [14],-92.56%
same,Activity,NCI-H460 [15],100%
same,Activity,NCI-H460 [16],95%
same,GI50,HCT-15; read-out: GI50,1.82 µM
same,CC50,HCT-15; [21],8.26 µM
same,TGI,HCT-15; read-out: TGI,3.88 µM
same,GI50,HCT-15; read-out: pGI50 (converted),1.82 µM
same,CC50,HCT-15; [22],8.32 µM
same,TGI,HCT-15; read-out: pTGI (converted),3.89 µM
same,Activity,NCI-H23 [17],-59%
same,Activity,HCT-116 [18],-64%
same,Activity,UO-31,53%
same,Activity,UACC-62 [19],-74%
same,Activity,MCF7,87%
same,Activity,M14,-75%
same,GI50,K562; read-out: GI50,1.91 µM
same,CC50,K562; [21],> 100 µM
same,TGI,K562; read-out: TGI,4.74 µM
same,GI50,K562; read-out: pGI50 (converted),1.91 µM
same,CC50,K562; [22],> 100 µM
same,TGI,K562; read-out: pTGI (converted),4.79 µM
same,Activity,NCI-H23 [20],100%
O=C(CCCn1c2c(sc3ccccc32)c(=O)n2nnc(-c3ccccc3)c12)NCCc1c[nH]cn1,GI50,SF-539 [1]; read-out: GI50,0.0206 µM
same,CC50,SF-539 [1]; [21],3.14 µM
same,TGI,SF-539 [1]; read-out: TGI,0.122 µM
same,GI50,SF-539 [1]; read-out: pGI50 (converted),0.0204 µM
same,CC50,SF-539 [1]; [22],3.16 µM
same,TGI,SF-539 [1]; read-out: pTGI (converted),0.123 µM
same,Activity,RXF 393 [2],113%
same,Activity,MDA-MB-468,97%
same,Activity,SF-539 [3],73%
same,Activity,HOP-62,112%
same,Activity,NCI-H522,-25%
same,GI50,RXF 393 [4]; read-out: GI50,2.2 µM
same,CC50,RXF 393 [4]; [21],7.77 µM
same,TGI,RXF 393 [4]; read-out: TGI,4.14 µM
same,GI50,RXF 393 [4]; read-out: pGI50 (converted),2.19 µM
same,CC50,RXF 393 [4]; [22],7.76 µM
same,TGI,RXF 393 [4]; read-out: pTGI (converted),4.17 µM
same,Activity,SF-268,93%
same,Activity,OVCAR-8,42%
same,Activity,SK-MEL-5,90%
same,Activity,HL-60(TB) [5],-89%
same,Activity,A498,-85%
same,GI50,[6]; read-out: GI50,1.07 µM
same,CC50,[6]; [21],> 100 µM
same,TGI,[6]; read-out: TGI,> 100 µM
same,GI50,[6]; read-out: pGI50 (converted),1.07 µM
same,Activity,UACC-257 [7],108%
same,Activity,UACC-257 [8],-80%
same,Activity,DU-145,-100%
same,Activity,T47D [9],-88%
same,GI50,SW-620; read-out: GI50,0.024 µM
same,CC50,SW-620; [21],4.16 µM
same,TGI,SW-620; read-out: TGI,1.01 µM
same,GI50,SW-620; read-out: pGI50 (converted),0.024 µM
same,CC50,SW-620; [22],4.17 µM
same,TGI,SW-620; read-out: pTGI (converted),1 µM
same,Activity,SNB-75,103%
same,Activity,UACC-62 [10],99%
same,Activity,[11],32%
same,Activity,COLO 205,-100%
same,Activity,HL-60(TB) [12],43%
same,GI50,T47D [13]; read-out: GI50,1.27 µM
same,CC50,T47D [13]; [21],30.6 µM
same,TGI,T47D [13]; read-out: TGI,6.37 µM
same,GI50,T47D [13]; read-out: pGI50 (converted),1.26 µM
same,CC50,T47D [13]; [22],30.9 µM
same,TGI,T47D [13]; read-out: pTGI (converted),6.31 µM
same,Activity,HCT-116 [14],-100%
same,Activity,NCI-H460 [15],114%
same,Activity,NCI-H460 [16],75%
same,GI50,HCT-15; read-out: GI50,0.372 µM
same,CC50,HCT-15; [21],5.74 µM
same,TGI,HCT-15; read-out: TGI,1.9 µM
same,GI50,HCT-15; read-out: pGI50 (converted),0.372 µM
same,CC50,HCT-15; [22],5.75 µM
same,TGI,HCT-15; read-out: pTGI (converted),1.91 µM
same,Activity,NCI-H23 [17],-38%
same,Activity,HCT-116 [18],3%
same,Activity,UO-31,106%
same,Activity,UACC-62 [19],-100%
same,Activity,MCF7,75%
same,Activity,M14,-80.56%
same,GI50,K562; read-out: GI50,0.0227 µM
same,CC50,K562; [21],5.18 µM
same,TGI,K562; read-out: TGI,1.02 µM
same,GI50,K562; read-out: pGI50 (converted),0.0229 µM
same,CC50,K562; [22],5.13 µM
same,TGI,K562; read-out: pTGI (converted),1.02 µM
same,Activity,NCI-H23 [20],92%
